Data reported in patent US9493506B2 (Enanta Pharmaceuticals, Inc., priority 2010, dated 2016).

Key:
Type in all cases: cell-based, hepatitis C virus (genotype 1a-H77)
[1] = system: HCV replicon with a D168V mutation in a 1a-H77 background; assay: transient replicon assay, D168V mutation in 1a-H77 background; settings: Hepatitis C virus, read-out: EC50 in a transient replicon assay with a D168V mutation in a 1a-H77 background
Method: (§1) Replicon cell lines can be maintained in Dulbecco's modified Eagles medium (DMEM) containing 100 IU/ml penicillin, […] streptomycin (Invitrogen), […] G418 (Invitrogen) and 10% (v/v) fetal bovine serum (FBS). Replicon-containing cells can be seeded into 96 well plates at a density of 5000 cells per well in 100 μl DMEM containing 5% FBS. The next day, the compound can be initially diluted in dimethyl sulfoxide (DMSO) to generate a 200× stock of the inhibitor in a series of 8 half-log dilutions. The dilution series can then be diluted 100-fold in the medium containing 5% FBS. One hundred microliters of medium with the inhibitor can be added to each well of the overnight cell culture plate already containing 100 μl of DMEM with 5% FBS. In assays where the protein binding effect on inhibitor potency is assessed, the medium from the overnight cell culture plates can be replaced with 200 μl DMEM containing 40% human plasma (Innovative Research) plus 5% FBS as well as compound. The cells can be grown for 4 days in tissue culture incubators. The inhibitory effects of compounds against the replicons can be determined by measuring either the level of luciferase or HCV RNA. The luciferase assay can be conducted using a Luciferase Assay System kit (Promega) following the manufacturer's instructions. Briefly, the cell culture medium is removed and wells are washed with 200 μl of phosphate-buffered saline. To each well Passive Lysis buffer (Promega, Wis.) is added and the plates are incubated for 30 min with rocking to lyse the cells. Luciferin solution (50 μl, Promega) is added, and luciferase activity is measured with a Victor II luminometer (Perkin-Elmer). To determine HCV RNA levels, RNA extractions can be performed using the CellsDirect kit (Invitrogen), and the HCV RNA copy number can be measured using the SuperScript III Platinum One-Step qRT-PCR system (Invitrogen) and primers specific to the HCV 5′ nontranslated region. Cytotoxicity can be determined by the 3-[4,5-dimethylhiazol-2-yl]-2,5-diphenyltetrazolium bromide (MTT) colorimetric assay as follows. Replicon cells is plated in 96-well plates (4000 cells per well), the next day compound dilutions are added as in the activity assay, and the cells are grown in the presence of the inhibitors for 4 days. The MTT solution is diluted in DMEM containing 5% FBS and 60 μl of the solution is added to the cells. After 4 hrs, the cells are solubilized by the addition of 30 […]μl SDS (20% in 0.02 N HCl). The plates are incubated overnight and the optical density can be measured at 570 nm. To determine compounds' EC50 and TD50, luciferase, RNA inhibition and MTT data can be analyzed using the GraphPad Prism 4 software (equation: sigmoidal dose-response—variable slope).
(§2) The 1a-H77 replicon for transient assays further differs from the replicon in the stable cell line in that it contains NS2 through NS5B in the second cistron. The 1b-N strain replicon contains NS3 through NS5B in the second cistron, with adaptive mutations E1202G in NS3 and S2204I in NS5A. Mutagenesis can be performed using the Stratagene QuikChange XL II site-directed mutagenesis kit. Mutants' sequences can be confirmed, plasmids can be linearized with Xba I restriction enzyme and used as template for in vitro transcription reactions to make mutant replicon RNA for transient transfections. In vitro transcription can be performed with the T7 Megascript kit (Ambion).
(§3) Transient replicon transfections can be performed essentially as described by Mo et al. (Antimicrob Agents Chemother (2005) 49(10):4305-4314) with slight modifications. Fifteen micrograms of template RNA can be used to electroporate 3×10^6 cells in a 200 μl volume in a 0.2 cm cuvette. The cells used for transient transfections can be Huh7 cells obtained by curing replicon-containing cells with IFN (Mo et al., supra). Electroporation can be done with a Gene Pulser II (Bio-Rad, CA) at 480V and 25 μF, using two manual pulses. […]

[2] = system: HCV replicon with a D168E mutation in a 1a-H77 background; assay: transient replicon assay, D168E mutation in 1a-H77 background; settings: Hepatitis C virus, read-out: EC50 in a transient replicon assay with a D168E mutation in a 1a-H77 background
Method: as §1, §2, §3

[3] = system: HCV replicon with a R155K mutation in a 1a-H77 background; assay: transient replicon assay, R155K mutation in 1a-H77 background; settings: Hepatitis C virus, read-out: EC50 in a transient replicon assay with a R155K mutation in a 1a-H77 background
Method: as §1, §2, §3

CC(C)(C)OC(=O)N[C@H]1CCCCC/C=C\[C@@H]2C[C@@]2(C(=O)NS(=O)(=O)C2CC2)NC(=O)[C@@H]2C[C@@H](Oc3nc4ccccc4nc3C(C)(F)F)CN2C1=O [Example 1, tert-butyl (2R,6S,13aS,14aR,16aS,Z)-14a-(cyclopropylsulfonylcarbamoyl)-2-(3-(1,1-difluoroethyl)quinoxalin-2-yloxy)-5,16-dioxo-1,2,3,5,6,7,8,9,10,11,13a,14,14a,15,16,16a-hexadecahydrocyclopropa[e]pyrrolo[1,2-a][1,4]diazacyclopentadecin-6-ylcarbamate]
EC50 [1]: 50 to 250 nM | EC50 [2]: 3 to 20 nM | EC50 [3]: < 1 nM

CCc1nc2ccc(F)cc2nc1O[C@@H]1C[C@H]2C(=O)N[C@]3(C(=O)NS(=O)(=O)C4CC4)C[C@H]3/C=C\CCCCC[C@H](NC(=O)OC(C)(C)C)C(=O)N2C1 [Example 121, tert-butyl (2R,6S,13aS,14aR,16aS,Z)-14a-(cyclopropylsulfonylcarbamoyl)-2-(3-ethyl-7-fluoroquinoxalin-2-yloxy)-5,16-dioxo-1,2,3,5,6,7,8,9,10,11,13a,14,14a,15,16,16a-hexadecahydrocyclopropa[e]pyrrolo[1,2-a][1,4]diazacyclopentadecin-6-ylcarbamate]
EC50 [1]: 50 to 250 nM | EC50 [2]: 3 to 20 nM | EC50 [3]: 1 to 10 nM

Cc1ccsc1C(=O)N[C@H]1CCCCC/C=C\[C@@H]2C[C@@]2(C(=O)NS(=O)(=O)C2CC2)NC(=O)[C@@H]2C[C@@H](Oc3nc4ccccc4nc3C(F)(F)F)CN2C1=O [Example 14]
EC50 [1]: 25 to 50 nM | EC50 [2]: 3 to 20 nM | EC50 [3]: < 1 nM

Cc1cc(C(=O)N[C@H]2CCCCC/C=C\[C@@H]3C[C@@]3(C(=O)NS(=O)(=O)C3CC3)NC(=O)[C@@H]3C[C@@H](Oc4nc5cc(F)cc(Br)c5nc4C)CN3C2=O)no1 [Example 98, N-((2R,6S,13aS,14aR,16aS,Z)-2-(5-bromo-7-fluoro-3-methylquinoxalin-2-yloxy)-14a-(cyclopropylsulfonylcarbamoyl)-5,16-dioxo-1,2,3,5,6,7,8,9,10,11,13a,14,14a,15,16,16a-hexadecahydrocyclopropa[e]pyrrolo[1,2-a][1,4]diazacyclopentadecin-6-yl)-5-methylisoxazole-3-carboxamide]
EC50 [1]: < 25 nM | EC50 [2]: 3 to 20 nM | EC50 [3]: 1 to 10 nM

Cc1onc(C(=O)N[C@H]2CCCCC/C=C\[C@@H]3C[C@@]3(C(=O)NS(=O)(=O)C3CC3)NC(=O)[C@@H]3C[C@@H](Oc4nc5ccccc5nc4C(C)(F)F)CN3C2=O)c1C [Example 6, N-((2R,6S,13aS,14aR,16aS,Z)-14a-(cyclopropylsulfonylcarbamoyl)-2-(3-(1,1-difluoroethyl)quinoxalin-2-yloxy)-5,16-dioxo-1,2,3,5,6,7,8,9,10,11,13a,14,14a,15,16,16a-hexadecahydrocyclopropa[e]pyrrolo[1,2-a][1,4]diazacyclopentadecin-6-yl)-4,5-dimethylisoxazole-3-carboxamide]
EC50 [1]: 50 to 250 nM | EC50 [2]: < 3 nM | EC50 [3]: 1 to 10 nM

Cc1onc(C(=O)N[C@H]2CCCCC/C=C\[C@@H]3C[C@@]3(C(=O)NS(=O)(=O)C3(C)CC3)NC(=O)[C@@H]3C[C@@H](Oc4nc5cc(F)ccc5nc4C(F)(F)F)CN3C2=O)c1C [Example 108, N-((2R,6S,13aS,14aR,16aS,Z)-2-(7-fluoro-3-(trifluoromethyl)quinoxalin-2-yloxy)-14a-(1-methylcyclopropylsulfonylcarbamoyl)-5,16-dioxo-1,2,3,5,6,7,8,9,10,11,13a,14,14a,15,16,16a-hexadecahydrocyclopropa[e]pyrrolo[1,2-a][1,4]diazacyclopentadecin-6-yl)-4,5-dimethylisoxazole-3-carboxamide]
EC50 [1]: < 25 nM | EC50 [2]: < 3 nM | EC50 [3]: < 1 nM

Cc1cnc(C(=O)N[C@H]2CCCCC/C=C\[C@@H]3C[C@@]3(C(=O)NS(=O)(=O)C3CC3)NC(=O)[C@@H]3C[C@@H](Oc4nc5ccccc5nc4C(F)(F)F)CN3C2=O)cn1 [Example 11, (2R,6S,13aS,14aR,16aS,Z)—N-(cyclopropylsulfonyl)-2-(3-(trifluoromethyl)quinoxalin-2-yloxy)-6-(5-methylpyrazine-2-carboxamido)-5,16-dioxo-1,2,3,5,6,7,8,9,10,11,13a,14,14a,15,16,16a-hexadecahydrocyclopropa[e]pyrrolo[1,2-a][1,4]diazacyclopentadecine-14a-carboxamide]
EC50 [1]: 50 to 250 nM | EC50 [2]: > 100 nM | EC50 [3]: 10 to 25 nM

CCc1nc2ccc(F)cc2nc1O[C@@H]1C[C@H]2C(=O)N[C@]3(C(=O)NS(=O)(=O)C4(C)CC4)C[C@H]3/C=C\CCCCC[C@H](NC(=O)c3cc(C4CC4)on3)C(=O)N2C1 [Example 151, 5-cyclopropyl-N-((2R,6S,13aS,14aR,16aS,Z)-2-(3-ethyl-7-fluoroquinoxalin-2-yloxy)-14a-(1-methylcyclopropylsulfonylcarbamoyl)-5,16-dioxo-1,2,3,5,6,7,8,9,10,11,13a,14,14a,15,16,16a-hexadecahydrocyclopropa[e]pyrrolo[1,2-a][1,4]diazacyclopentadecin-6-yl)isoxazole-3-carboxamide]
EC50 [1]: < 25 nM | EC50 [2]: 3 to 20 nM | EC50 [3]: 1 to 10 nM

CC(C)(C)C(=O)N[C@H]1CCCCC/C=C\[C@@H]2C[C@@]2(C(=O)NS(=O)(=O)C2CC2)NC(=O)[C@@H]2C[C@@H](Oc3nc4ccccc4nc3C(C)(F)F)CN2C1=O [Example 4, (2R,6S,13aS,14aR,16aS,Z)—N-(cyclopropylsulfonyl)-2-(3-(1,1-difluoroethyl)quinoxalin-2-yloxy)-5,16-dioxo-6-pivalamido-1,2,3,5,6,7,8,9,10,11,13a,14,14a,15,16,16a-hexadecahydrocyclopropa[e]pyrrolo[1,2-a][1,4]diazacyclopentadecine-14a-carboxamide]
EC50 [1]: 50 to 250 nM | EC50 [2]: 3 to 20 nM | EC50 [3]: 1 to 10 nM

Cc1nc2ccc(F)cc2nc1O[C@@H]1C[C@H]2C(=O)N[C@]3(C(=O)NS(=O)(=O)C4(C)CC4)C[C@H]3/C=C\CCCCC[C@H](NC(=O)c3noc(C)c3C)C(=O)N2C1 [Example 24, N-((2R,6S,13aS,14aR,16aS,Z)-2-(7-fluoro-3-methylquinoxalin-2-yloxy)-14a-(1-methylcyclopropylsulfonylcarbamoyl)-5,16-dioxo-1,2,3,5,6,7,8,9,10,11,13a,14,14a,15,16,16a-hexadecahydrocyclopropa[e]pyrrolo[1,2-a][1,4]diazacyclopentadecin-6-yl)-4,5-dimethylisoxazole-3-carboxamide]
EC50 [1]: < 25 nM | EC50 [2]: < 3 nM | EC50 [3]: < 1 nM

CC(C)(C)OC(=O)N[C@H]1CCCCC/C=C\[C@@H]2C[C@@]2(C(=O)NS(=O)(=O)C2(C)CC2)NC(=O)[C@@H]2C[C@@H](Oc3nc4cc(F)ccc4nc3C(F)(F)F)CN2C1=O [Example 110, tert-butyl (2R,6S,13aS,14aR,16aS,Z)-2-(7-fluoro-3-(trifluoromethyl)quinoxalin-2-yloxy)-14a-(1-methylcyclopropylsulfonylcarbamoyl)-5,16-dioxo-1,2,3,5,6,7,8,9,10,11,13a,14,14a,15,16,16a-hexadecahydrocyclopropa[e]pyrrolo[1,2-a][1,4]diazacyclopentadecin-6-ylcarbamate]
EC50 [1]: 25 to 50 nM | EC50 [2]: 3 to 20 nM | EC50 [3]: < 1 nM
